Key:
ovariectomized ddY mouse = experiment: Therapeutic effect in the ovariectomized osteoporetic mouse model (trabecular bone volume of the femur); assay type: in vivo, ddY mice; details: 50 mg/kg/day oral gavage for 4 weeks from 4 weeks after ovariectomy, salts (methansulfonic acid or HCl); for change in vivo at 50 mg/kg: Mus musculus, 672 h, read-out: Changes on TBV (% changes vs vehicle control)
How it was run: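 Female ddY mice, bilaterally ovariectomized; benzamidine salts (methanesulfonate or HCl) given orally at 50 mg/kg/day for 4 weeks, starting 4 weeks post-surgery. Femoral trabecular bone volume (%) measured histomorphometrically on H&E sections of trochlea epiphyseal region; reported as percentage change versus vehicle control.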

[1] = test system: mouse models of ovalbumin-induced asthma; experiment: Therapeutic effect in mouse model of asthma induced with ovalbumin (lung weight, total leukocytes in blood and BALF); assay type: in vivo, C57BL/6 mice; details: for Changes on the lung weight, Relative (%) / Total leukocytes in peripheral blood (×10^3/1 mm^3) / Total leukocytes in BALF (×10^5/1 ml): 200 mg/kg oral once a day; for Changes on the lung weight, Relative (%): % of body weight, vehicle control 0.780 ± 0.103, sham 0.694 ± 0.049; for Total leukocytes in peripheral blood (×10^3/1 mm^3): vehicle control 14.49 ± 0.88, sham 10.27 ± 0.93; for Total leukocytes in BALF (×10^5/1 ml): vehicle control 75.68 ± 4.67, sham 51.75 ± 2.15
Description: The benzamidine compounds were assated for therapeutic effect on allergic inflammation in mouse models of ovalbumin-induced asthma. Starting on the day of immunization the benzamidine compounds were dosed for 17 consecutive days. The experimental animals were re-exposed to ovalbumin 14 days after the sensitization and then sacrificed 3 days after the re-exposure. Changes in lung weight, cellular components of peripheral blood and bronchoalveolar lavage fluid, and lung histopathology were observed.
A total of 110 female C57BL/6 mice (7-week-old, SLC, Japan) were adapted to a laboratory environment for 6 days before being used in earnest experiments. While being housed at a densirt of five in a plastic cage, the experimental animals were breed in a breeding room with controlled temperature (20-25° C.) and humidity (30-35%). Under light-dark cycles of 12 hours, mice were allowed to have free access to feedstuff and tap water. While asthma was induced in 100 mice by ovalbumin, 10 mice were used as a non-treated group.
200 mg of benzamidine compounds (Methansulfonic acid or Hydrochloride) were completely dissolved in 5 ml of sterilized distilled water. The benzamidine compound in the solutions was orally administered at doses of 200 mg per kg of body weight once a day from the day of the sensitization with ovalbumin. The control group was administered with equal volumes of sterilized distilled water in the same manner.
A solution of 200 μg of ovalbumin (Grade VI; Sigma, st. Louis, Mo., USA) and 180 mg of aluminium hydroxide (Al(OH)3, dried powder gel; Aldrich, Milwaukee, USA) in 4 ml of physiological saline was allowed to stand at 4° C. overnight and was administered to the experimental animals (200 μl, abdominal injection) for sensitization. As for the non-treated group, a solution of only aluminium hydroxide in saline was injected. 15 days after sensitization, a 1.5% ovalbumin solution was sprayed in air using a nebulizer, followed by exposing the experimental animals to the spray for 10 min to induce asthma therein. The non-treated group was exposed only to saline in the same manner. All the experimental animals were sacrificed 3 days after the exposure.
On the final day of experiment, the lungs were separated form adjacent organs. The removed lungs were weight among individual animals, the relative weight of the lungs was calculated as a percentage of body weight using the following Equation 3. Relative weight of Lung(%)=(Absolute lung weight/Body weight)×100 Equation 3
On the final day of experiment, all the experimental animals were etherized and underwent laparotomy to expose the abdominal vena cava, from which 1 ml of blood was the taken. Using a hemocytometer, a blood sample was measured for total leukocyte counts in a ×10^3/1 mm^3 units.
On the final day of experiment, secretions present in bronchi and alveola were examined for cyrological constitution. After veing etherized, the experimental animals were operated to open the cervical region and the thorax. The jugular vein was allowed to bleed, followed by endotracheal intubation. 3 ml of phosphate buffered saline was injected twice through the tube and the thorax was massaged for 30 sec to obtain cell suspension from the lungs. Using a hemocytometer, a […] was measured for total leukocyte counts in a ×10^5/1 ml units.

osteoblast = experiment: Effect on bone formation (osteoblast nodule mineralization, Alizarin red S); assay type: cell-based, ICR mice; details: calvarial osteoblast in osteogenic differentiation medium
Description: The osteoblast, treated in this experiment, was prepared from the osteoblast as prepared in the above.
The osteoblast, isolated from sequential enzymatic treatment of calvariae from neonated ICR mice, was cultured in α-MEM medium containing 10% FBS for 4˜5 days. The osteoblast was also cultured for 24 hr after seeding the cells on a 12 well plate (10^5 cell/well), and medium was exchanged with the osteogenic differentiation medium containing 10 mM β-glycerophosphate and 50 μg/ml ascorbic acid.
The test substances at the concentration of 0.1 uM and 0.1 nM were added to the above medium for evaluating the effect promoting bone formation. The differentiation medium containing the test substances was exchanged every 3 or 4 days for 14 to 21 days until confirming the nodule mineralization.
The cell was rinsed twice with distilled water, and fixed by the 10% formalin solutions for 30 minutes. Alizarin red S and Von-kossa Solution were treated on the plate for measuring deposited calcium and phosphate in cell matrix, and the activity of the test substances on the bone formation was analyzed by determining stained area.
Additionally, for the purpose of estimating quantitative Arizarin red S in cell matrix, stained Arizarin red S was extracted by treating 10 mM sodium phosphate solution (pH 7.0), containing 10% cetylpyridinium chloride, for 15˜30 minutes in the shaking incubator, and then the amount of the deposited calcium was estimated by calculating the absorbance of the extracted Arizarin red S at 564 nm. […]

[2] = 200 mg/kg oral once a day from sensitization, vehicle control 0.134 ± 0.012, sham 0.110 ± 0.009

| SMILES | change in vivo at 50 mg/kg (ovariectomized ddY mouse) [%] | Changes on the lung weight, Absolute [1, 2] [g] | Changes on the lung weight, Relative (%) [1] [%] | Total leukocytes in peripheral blood (×10^3/1 mm^3) [1] | Total leukocytes in BALF (×10^5/1 ml) [1] | melting point [°C] | bone forming activity (%) (osteoblast; 0.1 nM) | bone forming activity (%) (osteoblast; 0.1 μM) | Changes on TBV (% changes vs vehicle control) (ovariectomized ddY mouse) [%] | Changes on the lung weight, Absolute (g) [1, 2] |
| --- | --- | --- | --- | --- | --- | --- | --- | --- | --- | --- |
| Cc1sc(-c2cccnc2)nc1-c1ccc(OCCCCCOc2ccc(C(=N)NO)cc2)cc1 [Example 13, N-hydroxy-4-(5-[4-(5-methyl-2-pyridin-3-yl-1,3-thiazol-4-yl)phenoxy]pentoxy)-benzamidine] | 82 | 0.108 ± 0.009 | 0.695 ± 0.075 | 14.06 ± 1.07 ×10^3/1 mm^3 | 72.75 ± 4.88 ×10^5/1 ml | 138 to 150 |  |  |  |  |
| CC(C)c1nc(-c2ccc(OCCCCCOc3ccc(C(=N)NO)cc3)cc2)c(CC2CCCC2)s1 [Example 47, N-hydroxy-4-(5-[4-(5-cyclopentylnnethyl-2-isopropyl-1,3-thiazol-4-yl)phenoxy]pentoxy)-benzamidine] |  |  | 0.706 ± 0.059 | 12.55 ± 1.35 # ×10^3/1 mm^3 | 62.40 ± 7.56 # ×10^5/1 ml |  | 9.4 | 11.31 | 139.8 | 0.122 ± 0.010 ## g |
| CCCN(CCC)c1nc(-c2ccc(OCCCCCOc3ccc(C(=N)NO)cc3)cc2)c(CC)s1 [Example 138, N-hydroxy-4-(5-[4-(2-dipropylamino-5-ethyl-1,3-thiazol-4-yl)phenoxy]pentoxy)-benzamidine] | 164 | 0.113 ± 0.011 | 0.691 ± 0.065 | 13.60 ± 0.83 # ×10^3/1 mm^3 | 68.83 ± 5.29 ## ×10^5/1 ml |  | 8.81 | 6.32 |  |  |
